Assay: Phase 1 Part A single ascending dose (SAD) and food effect/pH cohort, blood pressure and safety, healthy participants
Type: in vivo, human
Details: for Time of maximum mean DBP reduction / Time of maximum mean SBP reduction: within 12 h post dose
Experimental: The study was performed in 3 parts in 112 healthy male and female participants, including 24 Japanese participants. Female participants were to be not of childbearing potential. The present study was designed to evaluate the safety and tolerability, PK, and exploratory PD of an oral suspension of Compound A. Parts A and B (Cohort B1 only) enrolled healthy participants and was conducted at a site in The Netherlands and Part B (Cohort B2 to B5) enrolled healthy non-Japanese participants and was conducted at a site in the United Kingdom (UK). Part C enrolled healthy Japanese participants and was conducted at the same site in the UK.
Part A was an SAD study in a planned number of 6 sequential dose escalation cohorts (3, 10, 30, 100, 150, or 250 mg) of 8 healthy participants (6 active+2 placebo) each, under fasted conditions. Eligible participants in Part A (excluding those in Cohort A7 [food effect (FE)/pH cohort]) received a single administration of study drug (Compound A or placebo) under fasted conditions. In Cohort A1 to Cohort A6, sentinel dosing was employed (1 active+1 placebo, followed after 48 hours by the remaining participants of the cohort [5 active+1 placebo]). […] In addition to the 6 ascending dose cohorts, a cohort of 6 healthy participants (Cohort A7; 6 active, 100 mg Compound A) was included to assess the effect of food and pH on the bioavailability of Compound A in a 3-period, open-label, fixed-sequence, crossover design (FE/pH cohort).
Physical examinations, vital sign measurements (including orthostasis testing in Cohort A6, Cohort B3 to B5, and C1 to C3 at selected time points), 12-lead electrocardiogram (ECG), and clinical laboratory evaluations were performed at selected times throughout the study. In addition, Holter monitoring was performed for the first 24 hours post dose on Day 1 in Part A (not in FE/pH cohort), and also for the first 24 hours post dose on Day 1 and Day 14 in Parts B and C. Participants were closely monitored for adverse events (AEs). Blood samples were collected for up to 14 days (follow-up visit) after (last) study drug administration for PK analysis. In addition, blood and urine were collected for exploratory biomarker assessments and for biobanking of samples for potential analyses. Urine was collected for potential PK analysis for up to 96 hours after a single dose of Compound A or placebo was administered in the SAD part, and for up to 24 hours after the first (morning) dose of study drug on Day 1 and for up to 24 hours after the last (morning) dose of study drug on Day 14 in the MAD parts.

[1] = 100 mg fasted + famotidine (A7)

Compound: CCCN(C)C(=O)OCc1c(-c2ccc(O[C@H]3CCC[C@H](C(=O)O)C3)c(C)n2)nnn1C [Compound A, (1S,3S)-3-((2-methyl-6-(1-methyl-5-(((methyl(propyl)carbamoyl)-oxy)methyl)-1H-1,2,3-triazol-4-yl)pyridin-3-yl)oxy)cyclohexane-1-carboxylic acid]
- Time of maximum mean DBP reduction (100 mg fasted (A7)): 5 h
- Time of maximum mean SBP reduction (100 mg fasted (A7)): 8 h
- Time of maximum mean DBP reduction [1]: 6 h
- Time of maximum mean SBP reduction [1]: 6 h
- Time of maximum mean DBP reduction (100 mg fed (A7)): 5 h
- Time of maximum mean SBP reduction (100 mg fed (A7)): 6 h
- Time of maximum mean DBP reduction (SAD 10 mg (A2)): 6 h
- Time of maximum mean SBP reduction (SAD 10 mg (A2)): 8 h
- Time of maximum mean DBP reduction (SAD 30 mg (A3)): 5 h
- Time of maximum mean SBP reduction (SAD 30 mg (A3)): 4 h
- Time of maximum mean DBP reduction (SAD 100 mg (A4)): 5 h
- Time of maximum mean SBP reduction (SAD 100 mg (A4)): 2 h
- Time of maximum mean DBP reduction (SAD 150 mg (A5)): 6 h
- Time of maximum mean SBP reduction (SAD 150 mg (A5)): 6 h
- Effect on SBP and DBP (SAD cohorts): decreased SBP and DBP dose dependently, reversibly, and mostly asymptomatically with minimal effect on heart rate
- Safety and tolerability (single and multiple dose oral administration, healthy participants): generally safe and well tolerated
- Time after dosing of maximum BP reduction (single and multiple dose, healthy participants): 4 to 8 h

Reference: US20260207569A1, “LPA1 ANTAGONISTS FOR TREATING INTERSTITIAL LUNG DISEASE” (Bristol-Myers Squibb Company, priority 2022, published 2026)
